For 2 compounds, remaining activity results are on record in US20070117770A1, “Human ribosomal DNA (rDNA) and ribosomal RNA (rRNA) nucleic acids and uses thereof” (Cylene Pharmaceuticals, Inc., priority 2005, published 2007).

Common to all, as to assay: Protein kinase inhibition assay
Holding throughout (type): biochemical

Assay [1] addresses JAK2(h) (Homo sapiens, UniProt O60674). Conditions: read-out: percent residual activity of JAK2(h). How it is done: (§1) Certain compounds were tested for activity in protein kinase inhibition assays. All substrates were dissolved and diluted to working stocks in de-ionized water, apart from histone H1 (10× working stock in 20 mM MOPS pH 7.0), PDKtide (10× working stock in 50 mM Tris pH 7.0) ATF2 (which is typically stored at a 20× working stock in 50 mM Tris pH 7.5, 150 mM NaCl, 0.1 mM EGTA, 0.03% Brij-35, 50% glycerol, 1 mM benzamidine, 0.2 mM PMSF and 0.1% R-mercaptoethanol), KKLNRTLSFAEPG (SEQ ID NO:203) and RRRLSFAEPG (SEQ ID NO:204) (50 mM HEPES pH 7.4) and GGEEEEYFELVKKKK (SEQ ID NO:205) (20 mM MOPS pH 7.0). All kinases were pre-diluted to a 10× working concentration prior to addition into the assay. The composition of the dilution buffer for each kinase is detailed below.
In a final reaction volume of 25 μl, JAK2 (h) (5-10 mU) is incubated with 8 mM MOPS pH 7.0, 0.2 mM EDTA, 100 μM […] (SEQ ID NO:217), 10 mM MgAcetate and [gamma-33P-ATP] (specific activity approx. 500 cpm/pmol, concentration as required). The reaction is initiated by the addition of the MgATP mix. After incubation for 40 minutes at room temperature, the reaction is stopped by the addition of 5 μl of a 3% phosphoric acid solution. 10 μl of the reaction is then spotted onto a P30 filtermat and washed three times for 5 minutes in 75 mM phosphoric acid and once in methanol prior to drying and scintillation counting.

Assay [2] has as its target SAPK3(h) (Homo sapiens, UniProt P53778). Conditions: read-out: percent residual activity of SAPK3(h). How it is done:
as §1
In a final reaction volume of 25 μl, SAPK3 (h) (5-10 mU) is incubated with 25 mM Tris pH 7.5, 0.02 mM EGTA, 0.33 mg/ml myelin basic protein, 10 mM MgAcetate and [gamma-33P-ATP] (specific activity approx. 500 cpm/pmol, concentration as required). The reaction is initiated by the addition of the MgATP mix. After incubation for 40 minutes at room temperature, the reaction is stopped by the addition of 5 μl of a 3% phosphoric acid solution. 10 μl of the reaction is then spotted onto a P30 filtermat and washed three times for 5 minutes in 75 mM phosphoric acid and once in methanol prior to drying and scintillation counting.

Assay [3] deals with TrkA(h) (Homo sapiens, UniProt P04629). Conditions: read-out: percent residual activity of TrkA(h). How it is done: as §1
In a final reaction volume of 25 μl, TrkA (h) (5-10 mU) is incubated with 8 mM MOPS pH 7.0, 0.2 mM EDTA, 250 μM KKKSPGEYVNIEFG (SEQ ID NO:207), 10 mM MgAcetate and [gamma-33P-ATP] (specific activity approx. 500 cpm/pmol, concentration as required). The reaction is initiated by the addition of the MgATP mix. After incubation for 40 minutes at room temperature, the reaction is stopped by the addition of 5 μl of a 3% phosphoric acid solution. 10 μl of the reaction is then spotted onto a P30 filtermat and washed three times for 5 minutes in 75 mM phosphoric acid and once in methanol prior to drying and scintillation counting.

The target of assay [4] is MLCK(h) (Homo sapiens, UniProt Q9H1R3). Particulars: read-out: percent residual activity of MLCK(h). How it is done:
as §1
In a final reaction volume of 25 μl, MLCK (h) (5-10 mU) is incubated with 8 mM MOPS pH 7.0, 0.2 mM EDTA, 0.5 mM CaCl2, 16 μg/ml calmodulin,250 μM KKLNRTLSFAEPG (SEQ ID NO:203), 10 mM MgAcetate and [gamma-33P-ATP] (specific activity approx. 500 cpm/pmol, concentration as required). The reaction is initiated by the addition of the MgATP mix. After incubation for 40 minutes at room temperature, the reaction is stopped by the addition of 5 μl of a 3% phosphoric acid solution. […]

Assay [5] has as its target MEK1(h) (Homo sapiens, UniProt Q02750). Particulars: read-out: percent residual activity of MEK1(h). How it is done:
as §1
The reaction is initiated by the addition of the MgATP. After incubation for 40 minutes at room temperature, 5 μl of this incubation mix is used to initiate a MAPK2 (m) assay, which is described on page 12 of this book.

For assay [6], the target named is PDK1(h) (Homo sapiens, UniProt O15530). Conditions: read-out: percent residual activity of PDK1(h). How it is done:
as §1
In a final reaction volume of 25 μl, PDK1 (h) (5-10 mU) is incubated with 50 mM Tris pH 7.5, 100 μM […] (SEQ ID NO:217) (PDKtide), 0.1% R-mercaptoethanol, 10 mM MgAcetate and [gamma-33P-ATP] (specific activity approx. 500 cpm/pmol, concentration as required). The reaction is initiated by the addition of the MgATP mix. After incubation for 40 minutes at room temperature, the reaction is stopped by the addition of 5 μl of a 3% phosphoric acid solution. […]

Assay [7] concerns the target EphB2(h) (Homo sapiens, UniProt P29323). Conditions: read-out: percent residual activity of EphB2(h). How it is done:
as §1
In a final reaction volume of 25 μl, EphB2 (h) (5-10 mU) is incubated with 8 mM MOPS pH 7.0, 0.2 mM EDTA, 10 mM MnCl2, 0.1 mg/ml poly(Glu, Tyr) 4:1, 10 mM MgAcetate and [gamma-33P-ATP] (specific activity approx. 500 cpm/pmol, concentration as required). The reaction is initiated by the addition of the MgATP mix. After incubation for 40 minutes at room temperature, the reaction is stopped by the addition of 5 μl of a 3% phosphoric acid solution. 10 μl of the reaction is then spotted onto a Filtermat A and washed three times for 5 minutes in 75 mM phosphoric acid and once in methanol prior to drying and scintillation counting.

Chain of SAPK3(h) (P53778 whole entry): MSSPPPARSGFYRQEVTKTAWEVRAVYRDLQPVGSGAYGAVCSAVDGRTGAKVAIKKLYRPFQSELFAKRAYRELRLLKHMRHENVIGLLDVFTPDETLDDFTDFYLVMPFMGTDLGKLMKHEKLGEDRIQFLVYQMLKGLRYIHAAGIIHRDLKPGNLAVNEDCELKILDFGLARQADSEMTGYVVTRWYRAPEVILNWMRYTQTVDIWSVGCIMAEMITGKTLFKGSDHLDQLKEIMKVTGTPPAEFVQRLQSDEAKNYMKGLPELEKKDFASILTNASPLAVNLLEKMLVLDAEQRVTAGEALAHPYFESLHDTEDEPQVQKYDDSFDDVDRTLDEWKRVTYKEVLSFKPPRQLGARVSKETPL
Chain of EphB2(h) (P29323 19-1055): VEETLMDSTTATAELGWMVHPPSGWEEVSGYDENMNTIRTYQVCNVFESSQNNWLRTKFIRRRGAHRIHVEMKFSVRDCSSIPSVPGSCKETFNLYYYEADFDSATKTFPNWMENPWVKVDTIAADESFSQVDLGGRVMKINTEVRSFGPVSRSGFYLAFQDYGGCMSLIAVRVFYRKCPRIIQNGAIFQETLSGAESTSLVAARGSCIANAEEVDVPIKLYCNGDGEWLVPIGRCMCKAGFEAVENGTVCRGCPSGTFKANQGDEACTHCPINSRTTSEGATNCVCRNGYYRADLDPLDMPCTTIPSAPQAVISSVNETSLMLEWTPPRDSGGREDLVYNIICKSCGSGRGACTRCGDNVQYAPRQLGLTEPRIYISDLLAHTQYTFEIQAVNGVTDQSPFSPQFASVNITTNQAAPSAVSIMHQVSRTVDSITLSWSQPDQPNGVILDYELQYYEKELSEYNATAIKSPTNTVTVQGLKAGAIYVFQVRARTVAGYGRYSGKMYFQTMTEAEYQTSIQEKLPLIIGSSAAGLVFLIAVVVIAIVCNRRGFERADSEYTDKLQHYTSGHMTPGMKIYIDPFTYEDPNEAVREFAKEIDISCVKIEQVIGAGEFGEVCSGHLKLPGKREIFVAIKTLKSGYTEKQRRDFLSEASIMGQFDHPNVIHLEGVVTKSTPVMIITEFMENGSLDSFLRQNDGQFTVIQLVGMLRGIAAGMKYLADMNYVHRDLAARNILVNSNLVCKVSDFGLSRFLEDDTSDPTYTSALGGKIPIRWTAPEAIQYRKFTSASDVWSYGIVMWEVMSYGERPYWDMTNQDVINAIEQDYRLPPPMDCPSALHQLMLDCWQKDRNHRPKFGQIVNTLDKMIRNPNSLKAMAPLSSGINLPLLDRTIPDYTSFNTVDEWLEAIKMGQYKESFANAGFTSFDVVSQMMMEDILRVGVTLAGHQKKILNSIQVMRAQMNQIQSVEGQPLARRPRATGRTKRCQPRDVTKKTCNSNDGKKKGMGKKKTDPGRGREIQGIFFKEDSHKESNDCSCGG
Chain of JAK2(h) (O60674 whole entry): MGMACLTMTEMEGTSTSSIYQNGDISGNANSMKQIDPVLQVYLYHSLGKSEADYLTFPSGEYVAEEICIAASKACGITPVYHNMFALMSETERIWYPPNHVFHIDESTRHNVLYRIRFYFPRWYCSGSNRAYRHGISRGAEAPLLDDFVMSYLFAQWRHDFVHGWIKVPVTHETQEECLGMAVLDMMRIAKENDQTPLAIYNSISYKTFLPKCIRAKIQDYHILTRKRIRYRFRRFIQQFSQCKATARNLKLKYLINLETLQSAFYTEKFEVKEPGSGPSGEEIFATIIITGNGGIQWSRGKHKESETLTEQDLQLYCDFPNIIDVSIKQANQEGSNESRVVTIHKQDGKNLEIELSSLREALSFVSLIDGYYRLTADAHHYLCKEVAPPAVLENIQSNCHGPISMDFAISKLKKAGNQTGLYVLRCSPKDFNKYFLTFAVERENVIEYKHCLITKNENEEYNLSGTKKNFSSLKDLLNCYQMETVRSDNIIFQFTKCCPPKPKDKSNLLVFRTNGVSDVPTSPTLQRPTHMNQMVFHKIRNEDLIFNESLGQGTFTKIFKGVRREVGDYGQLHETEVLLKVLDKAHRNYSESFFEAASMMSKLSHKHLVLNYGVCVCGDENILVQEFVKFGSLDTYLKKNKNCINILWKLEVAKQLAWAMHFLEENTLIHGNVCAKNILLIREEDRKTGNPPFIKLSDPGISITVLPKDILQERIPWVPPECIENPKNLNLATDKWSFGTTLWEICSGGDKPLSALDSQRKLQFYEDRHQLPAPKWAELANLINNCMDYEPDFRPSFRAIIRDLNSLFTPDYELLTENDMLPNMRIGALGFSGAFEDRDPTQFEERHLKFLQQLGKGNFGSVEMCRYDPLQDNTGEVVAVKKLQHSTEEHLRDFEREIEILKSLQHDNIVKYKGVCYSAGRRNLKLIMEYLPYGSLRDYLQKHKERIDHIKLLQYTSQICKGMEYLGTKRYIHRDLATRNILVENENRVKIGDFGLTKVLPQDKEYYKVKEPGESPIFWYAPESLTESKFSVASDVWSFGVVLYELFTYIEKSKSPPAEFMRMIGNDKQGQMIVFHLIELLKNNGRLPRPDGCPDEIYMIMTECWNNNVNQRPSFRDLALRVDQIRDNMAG
Chain of PDK1(h) (O15530 whole entry): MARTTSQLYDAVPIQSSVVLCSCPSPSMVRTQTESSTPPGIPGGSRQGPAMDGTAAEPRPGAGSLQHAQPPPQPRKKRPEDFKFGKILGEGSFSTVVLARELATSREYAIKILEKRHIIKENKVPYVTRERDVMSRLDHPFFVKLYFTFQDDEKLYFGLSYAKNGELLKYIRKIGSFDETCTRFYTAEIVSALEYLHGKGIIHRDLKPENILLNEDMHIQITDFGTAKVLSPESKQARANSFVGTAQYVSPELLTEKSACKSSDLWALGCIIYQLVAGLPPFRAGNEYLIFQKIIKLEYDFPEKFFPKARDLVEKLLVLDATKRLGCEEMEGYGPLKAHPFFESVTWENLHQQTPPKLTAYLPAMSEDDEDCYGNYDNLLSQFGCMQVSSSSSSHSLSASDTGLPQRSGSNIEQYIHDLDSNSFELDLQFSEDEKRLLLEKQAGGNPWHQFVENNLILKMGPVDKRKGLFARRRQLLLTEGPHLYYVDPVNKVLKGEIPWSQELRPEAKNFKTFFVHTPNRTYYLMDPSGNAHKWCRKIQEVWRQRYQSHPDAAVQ
Chain of TrkA(h) (P04629 33-796): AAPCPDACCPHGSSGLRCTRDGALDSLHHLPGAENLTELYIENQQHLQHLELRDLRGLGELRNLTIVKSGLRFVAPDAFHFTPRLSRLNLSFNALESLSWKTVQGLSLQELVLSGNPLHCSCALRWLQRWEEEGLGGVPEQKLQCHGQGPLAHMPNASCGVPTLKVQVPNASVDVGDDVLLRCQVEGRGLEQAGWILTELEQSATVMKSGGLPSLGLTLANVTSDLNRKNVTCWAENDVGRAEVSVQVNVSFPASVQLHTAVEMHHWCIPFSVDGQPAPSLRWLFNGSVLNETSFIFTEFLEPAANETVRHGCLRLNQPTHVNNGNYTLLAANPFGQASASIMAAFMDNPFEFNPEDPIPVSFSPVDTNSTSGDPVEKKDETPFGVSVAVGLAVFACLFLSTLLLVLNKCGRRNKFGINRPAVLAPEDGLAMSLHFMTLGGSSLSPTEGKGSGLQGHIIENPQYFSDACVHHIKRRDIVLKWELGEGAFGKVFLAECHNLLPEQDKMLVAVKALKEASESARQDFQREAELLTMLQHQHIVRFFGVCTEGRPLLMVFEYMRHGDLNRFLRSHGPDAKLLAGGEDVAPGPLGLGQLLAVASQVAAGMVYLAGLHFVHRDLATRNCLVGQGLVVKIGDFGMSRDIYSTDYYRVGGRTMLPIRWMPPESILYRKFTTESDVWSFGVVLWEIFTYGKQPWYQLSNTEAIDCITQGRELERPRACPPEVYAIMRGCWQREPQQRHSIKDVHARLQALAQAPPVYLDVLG
Chain of MEK1(h) (Q02750 whole entry): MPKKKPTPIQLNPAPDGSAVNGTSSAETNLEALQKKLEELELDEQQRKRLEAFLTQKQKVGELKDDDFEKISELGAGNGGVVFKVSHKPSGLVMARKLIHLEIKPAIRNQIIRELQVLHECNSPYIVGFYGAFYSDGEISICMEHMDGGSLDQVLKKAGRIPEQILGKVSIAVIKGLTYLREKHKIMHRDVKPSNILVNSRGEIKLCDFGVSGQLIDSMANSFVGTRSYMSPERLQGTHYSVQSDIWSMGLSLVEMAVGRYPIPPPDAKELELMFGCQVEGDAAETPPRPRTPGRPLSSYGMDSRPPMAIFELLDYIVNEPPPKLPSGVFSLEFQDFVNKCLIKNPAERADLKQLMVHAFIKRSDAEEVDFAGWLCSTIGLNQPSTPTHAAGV

Regarding `CN1CCCC1CCNC(=O)c1cn2c3c(c(N4CCC(c5cnccn5)C4)c(F)cc3c1=O)Oc1cc3ccccc3cc1-2` (centres unmarked) [Compound A-1], the remaining activity at 2.5 µM turned out to be 105% in assay [1]; 85% in assay [2]; 25% in assay [3]; 77% in assay [4]; 87% in assay [5]; 121% in assay [6]. The remaining activity at 2.5 µM in assay [7] came out at 96%.

On to `CC(=O)N1CCN(c2ccc3c(=O)c(C(=O)NCCN4CCCC4)c4n(C)c5ccccc5n4c3n2)CC1` [Compound B-1], for which the remaining activity at 2.5 µM was 116% in assay [1]; 111% in assay [2]; 80% in assay [3]; 94% in assay [4]; 90% in assay [5]; 109% in assay [6]. The remaining activity at 2.5 µM in assay [7] worked out at 106%.
